Structures are written as SMILES. Starred links: 1 amine or outer side, 2 acyl side, 3 side chain; linkers in the order of their positions; H or OH if unused. Non-standard residues stand in square brackets, D forms with d. Residues, ends and D or L forms follow the SMILES beside them. Groups on a side chain read outwards from the residue. *: point of attachment. X5 = CCCCCCCCCCCCCCCC(=O)N[C@@H](CCC(=O)N[C@@H](CCC(=O)N[C@@H](CCC(=O)NCCCOCCOCCOCCCNC(=O)CCC(=O)NCCCOCCOCCOCCCNC(=O)CCC(=O)NCCCOCCOCCOCCCNC(=O)CCC(=O)NCCCOCCOCCOCCCN*)C(=O)O)C(=O)O)C(=O)O; X1 = CCCCCCCCCCCCCCCC(=O)N[C@@H](CCC(=O)N[C@@H](CCC(=O)N[C@@H](CCC(=O)NCCCOCCOCCOCCCNC(=O)CCC(=O)NCCCOCCOCCOCCCNC(=O)CCC(=O)NCCCOCCOCCOCCCN*)C(=O)O)C(=O)O)C(=O)O; Trp(5-Cl) = N[C@@H](Cc1c[nH]c2ccc(Cl)cc12)C(=O)O; Suc = O=C(CCC(=O)[*:2])[*:1]; αMeK = C[C@](N)(CCCCN)C(=O)O; Aib = CC(C)(N)C(=O)O

For the test, the target named is T1, RXFP1 (Homo sapiens, UniProt Q9HBX9).
T1 construct: OVCAR5 cells expressing endogenous RXFP1; endogenous in cells; host or cells: OVCAR5
T1 sequence (Q9HBX9 1-757): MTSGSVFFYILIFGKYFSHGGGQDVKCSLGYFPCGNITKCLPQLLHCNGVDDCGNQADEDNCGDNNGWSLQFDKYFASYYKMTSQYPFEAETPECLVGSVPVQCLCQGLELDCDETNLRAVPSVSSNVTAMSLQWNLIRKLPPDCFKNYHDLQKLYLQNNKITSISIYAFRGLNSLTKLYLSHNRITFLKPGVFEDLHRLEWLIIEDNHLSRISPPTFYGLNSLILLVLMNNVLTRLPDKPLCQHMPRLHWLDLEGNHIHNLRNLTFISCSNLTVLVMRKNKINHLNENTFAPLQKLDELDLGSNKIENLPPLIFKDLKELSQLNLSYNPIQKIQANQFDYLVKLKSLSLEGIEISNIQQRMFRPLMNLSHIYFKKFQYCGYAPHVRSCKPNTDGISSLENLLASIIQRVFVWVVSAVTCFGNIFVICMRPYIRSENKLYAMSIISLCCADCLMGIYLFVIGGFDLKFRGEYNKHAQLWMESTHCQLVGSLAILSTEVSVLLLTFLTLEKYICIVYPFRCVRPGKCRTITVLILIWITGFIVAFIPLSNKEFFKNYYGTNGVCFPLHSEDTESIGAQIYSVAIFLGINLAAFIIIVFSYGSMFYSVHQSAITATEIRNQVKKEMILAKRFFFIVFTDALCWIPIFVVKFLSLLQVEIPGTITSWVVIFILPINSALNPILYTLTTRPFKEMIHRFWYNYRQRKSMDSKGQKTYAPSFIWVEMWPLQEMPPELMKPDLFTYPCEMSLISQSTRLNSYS
Put plainly: OVCAR5 cAMP assay (HTRF). Format: cell-based. To be noted: for EC50: OVCAR 5 cells expressing endogenous RXFP1, cAMP readout; for Emax: OVCAR 5 cells, maximal cAMP relative to H2-relaxin. In outline:
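Peptide agonism measured as intracellular cAMP (HTRF) after 30 min at 37° C in serum-free medium, following 40 min 1 mM IBMX preincubation of OVCAR5 cells. Nonlinear regression gave EC50; Emax % = 100 × compound maximal cAMP / H2-relaxin maximal cAMP.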
For orientation: Changes in cAMP serve as a functional read-out for many G protein-coupled receptors.

Take `CCCCCCCCCCCCCCCC(=O)N[C@@H](CCC(=O)N[C@@H](CCC(=O)N[C@@H](CCC(=O)NCCCOCCOCCOCCCNC(=O)CCC(=O)NCCCOCCOCCOCCCNC(=O)CCC(=O)NCCCOCCOCCOCCCNC(=O)CCC(=O)NCCCOCCOCCOCCCNC(=O)CCC(=O)NCCCC[C@H](NC(=O)CNC(=O)[C@H](CCC(=O)O)NC(=O)C(C)(C)NC(=O)C(C)(C)NC(=O)[C@@H](NC(=O)[C@H](CCCCNC(C)=O)NC(=O)[C@H](C)NC(=O)[C@H](CCCNC(=N)N)NC(=O)[C@@H](NC(=O)[C@H](CCCCN)NC(=O)[C@H](CCC(=O)O)NC(=O)[C@H](CCCNC(=N)N)NC(=O)CNC(=O)[C@H](CCC(=O)O)NC(=O)[C@H](CC(C)C)NC(C)=O)C(C)C)[C@@H](C)CC)C(=O)N[C@@H](CO)C(=O)N[C@H](C(=O)N[C@@H](Cc1ccccc1)C(=O)N[C@@H](CO)C(=O)N[C@@](C)(CCCCN)C(=O)N[C@@H](CCCNC(=N)N)C(=O)N[C@@H](C)C(=O)N[C@@H](CCCCNC(C)=O)C(N)=O)[C@@H](C)O)C(=O)O)C(=O)O)C(=O)O` [compound 78] (Ac-LEGREKVRAK(Ac)I[Aib][Aib]EGK([Suc-X5])STFS[αMeK]RAK(Ac)-NH2): the concentration giving a half-maximal response (EC50) was 0.18 nM and the Emax was found to be 99%.
For the molecule `CCCCCCCCCCCCCCCC(=O)N[C@@H](CCC(=O)N[C@@H](CCC(=O)N[C@@H](CCC(=O)NCCCOCCOCCOCCCNC(=O)CCC(=O)NCCCOCCOCCOCCCNC(=O)CCC(=O)NCCCOCCOCCOCCCNC(=O)CCC(=O)NCCCC[C@H](NC(=O)CNC(=O)[C@H](CCC(=O)O)NC(=O)C(C)(C)NC(=O)C(C)(C)NC(=O)[C@@H](NC(=O)[C@H](CCCCNC(C)=O)NC(=O)[C@H](C)NC(=O)[C@H](CCCNC(=N)N)NC(=O)[C@@H](NC(=O)[C@H](CCCCN)NC(=O)[C@H](CCC(=O)O)NC(=O)[C@H](CCCNC(=N)N)NC(=O)CNC(=O)[C@H](CCC(=O)O)NC(=O)[C@H](CC(C)C)NC(C)=O)C(C)C)[C@@H](C)CC)C(=O)N[C@@H](CO)C(=O)N[C@@H](CCCCN)C(=O)N[C@@H](Cc1ccccc1)C(=O)N[C@@H](CO)C(=O)NC(C)(C)C(=O)N[C@@H](CCCNC(=N)N)C(=O)N[C@@H](CCCCN)C(=O)N[C@@H](CCCCNC(C)=O)C(N)=O)C(=O)O)C(=O)O)C(=O)O` [compound 79] (Ac-LEGREKVRAK(Ac)I[Aib][Aib]EGK([Suc-X1])SKFS[Aib]RKK(Ac)-NH2), the EC50 was found to be 0.45 nM and the Emax was 95%.
For `CCCCCCCCCCCCCCCC(=O)N[C@@H](CCC(=O)N[C@@H](CCC(=O)N[C@@H](CCC(=O)NCCCOCCOCCOCCCNC(=O)CCC(=O)NCCCOCCOCCOCCCNC(=O)CCC(=O)NCCCOCCOCCOCCCNC(=O)CCC(=O)NCCCC[C@H](NC(=O)CNC(=O)[C@H](CCC(=O)O)NC(=O)C(C)(C)NC(=O)C(C)(C)NC(=O)[C@@H](NC(=O)[C@H](CCCCNC(C)=O)NC(=O)[C@H](C)NC(=O)[C@H](CCCNC(=N)N)NC(=O)[C@@H](NC(=O)[C@H](CCCNC(=N)N)NC(=O)[C@H](CCC(=O)O)NC(=O)[C@H](CCCNC(=N)N)NC(=O)CNC(=O)[C@H](CCC(=O)O)NC(=O)[C@H](CC(C)C)NC(C)=O)C(C)C)[C@@H](C)CC)C(=O)N[C@@H](CO)C(=O)N[C@H](C(=O)N[C@@H](Cc1c[nH]c2ccc(Cl)cc12)C(=O)N[C@@H](CO)C(=O)NC(C)(C)C(=O)N[C@@H](CCCNC(=N)N)C(=O)N[C@@H](CCCNC(=N)N)C(=O)N[C@@H](CCCCNC(C)=O)C(N)=O)[C@@H](C)O)C(=O)O)C(=O)O)C(=O)O` [compound 80] (Ac-LEGRERVRAK(Ac)I[Aib][Aib]EGK([Suc-X1])ST[Trp(5-Cl)]S[Aib]RRK(Ac)-NH2), in that order: 0.63 nM and 93%.
Taken in the same sequence, the figures for `CCCCCCCCCCCCCCCC(=O)N[C@@H](CCC(=O)N[C@@H](CCC(=O)N[C@@H](CCC(=O)NCCCOCCOCCOCCCNC(=O)CCC(=O)NCCCOCCOCCOCCCNC(=O)CCC(=O)NCCCOCCOCCOCCCNC(=O)CCC(=O)NCCCC[C@H](NC(=O)CNC(=O)[C@H](CCC(=O)O)NC(=O)C(C)(C)NC(=O)C(C)(C)NC(=O)[C@@H](NC(=O)[C@H](CCCCNC(C)=O)NC(=O)[C@H](C)NC(=O)[C@H](CCCNC(=N)N)NC(=O)[C@@H](NC(=O)[C@H](CCCCN)NC(=O)[C@H](CCC(=O)O)NC(=O)[C@H](CCCNC(=N)N)NC(=O)CNC(=O)[C@H](CCC(=O)O)NC(=O)[C@H](CCCCNC(C)=O)NC(C)=O)C(C)C)[C@@H](C)CC)C(=O)N[C@@H](CO)C(=O)N[C@H](C(=O)N[C@@H](Cc1ccccc1)C(=O)N[C@@H](CO)C(=O)N[C@@](C)(CCCCN)C(=O)N[C@@H](CCCNC(=N)N)C(=O)N[C@@H](C)C(=O)N[C@@H](CCCCNC(C)=O)C(N)=O)[C@@H](C)O)C(=O)O)C(=O)O)C(=O)O` [compound 81] (Ac-K(Ac)EGREKVRAK(Ac)I[Aib][Aib]EGK([Suc-X1])STFS[αMeK]RAK(Ac)-NH2) were 0.16 nM and 98%.
As to `CCCCCCCCCCCCCCCC(=O)N[C@@H](CCC(=O)N[C@@H](CCC(=O)N[C@@H](CCC(=O)NCCCOCCOCCOCCCNC(=O)CCC(=O)NCCCOCCOCCOCCCNC(=O)CCC(=O)NCCCOCCOCCOCCCNC(=O)CCC(=O)NCCCC[C@H](NC(=O)CNC(=O)[C@H](CCC(=O)O)NC(=O)C(C)(C)NC(=O)C(C)(C)NC(=O)[C@@H](NC(=O)[C@H](CCCCNC(C)=O)NC(=O)C(C)(C)NC(=O)[C@H](CCCNC(=N)N)NC(=O)[C@@H](NC(=O)[C@H](CCCCN)NC(=O)[C@H](CCC(=O)O)NC(=O)[C@H](CCCNC(=N)N)NC(=O)CNC(=O)[C@H](CCC(=O)O)NC(=O)[C@H](CC(C)C)NC(C)=O)C(C)C)[C@@H](C)CC)C(=O)N[C@@H](CO)C(=O)N[C@H](C(=O)N[C@@H](Cc1c[nH]c2ccccc12)C(=O)N[C@@H](CO)C(=O)NC(C)(C)C(=O)N[C@@H](CCCNC(=N)N)C(=O)N[C@@H](CCCCN)C(=O)N[C@@H](CCCCNC(C)=O)C(N)=O)[C@@H](C)O)C(=O)O)C(=O)O)C(=O)O` [compound 82] (Ac-LEGREKVR[Aib]K(Ac)I[Aib][Aib]EGK([Suc-X1])STWS[Aib]RKK(Ac)-NH2), the maximum response (Emax) was found to be 95%.
The molecule `CCCCCCCCCCCCCCCC(=O)N[C@@H](CCC(=O)N[C@@H](CCC(=O)N[C@@H](CCC(=O)NCCCOCCOCCOCCCNC(=O)CCC(=O)NCCCOCCOCCOCCCNC(=O)CCC(=O)NCCCOCCOCCOCCCNC(=O)CCC(=O)NCCCC[C@H](NC(=O)CNC(=O)[C@H](CCC(=O)O)NC(=O)C(C)(C)NC(=O)C(C)(C)NC(=O)[C@@H](NC(=O)[C@H](CCCCNC(C)=O)NC(=O)[C@H](C)NC(=O)[C@H](CCCNC(=N)N)NC(=O)[C@@H](NC(=O)[C@H](CCCCN)NC(=O)[C@H](CCC(=O)O)NC(=O)[C@H](CCCNC(=N)N)NC(=O)CNC(=O)[C@H](CCC(=O)O)NC(=O)[C@H](CC(C)C)NC(C)=O)C(C)C)[C@@H](C)CC)C(=O)N[C@@H](CO)C(=O)N[C@@H](CCCCN)C(=O)N[C@@H](Cc1c[nH]c2ccccc12)C(=O)N[C@@H](CO)C(=O)NC(C)(C)C(=O)N[C@@H](CCCNC(=N)N)C(=O)N[C@@H](CCCCN)C(=O)N[C@@H](CCCCNC(C)=O)C(N)=O)C(=O)O)C(=O)O)C(=O)O` [compound 83] (Ac-LEGREKVRAK(Ac)I[Aib][Aib]EGK([Suc-X1])SKWS[Aib]RKK(Ac)-NH2) gave an EC50 of 0.25 nM and an Emax of 94%.
In the case of `CCCCCCCCCCCCCCCC(=O)N[C@@H](CCC(=O)N[C@@H](CCC(=O)N[C@@H](CCC(=O)NCCCOCCOCCOCCCNC(=O)CCC(=O)NCCCOCCOCCOCCCNC(=O)CCC(=O)NCCCOCCOCCOCCCNC(=O)CCC(=O)NCCCC[C@H](NC(=O)CNC(=O)[C@H](CCC(=O)O)NC(=O)[C@@H](NC(=O)C(C)(C)NC(=O)[C@@H](NC(=O)[C@H](CCCCNC(C)=O)NC(=O)[C@H](C)NC(=O)[C@H](CCCNC(=N)N)NC(=O)[C@@H](NC(=O)[C@H](CCCCN)NC(=O)[C@H](CCC(=O)O)NC(=O)[C@H](CCCNC(=N)N)NC(=O)CNC(=O)[C@H](CCC(=O)O)NC(=O)[C@H](CC(C)C)NC(C)=O)C(C)C)[C@@H](C)CC)[C@@H](C)CC)C(=O)N[C@@H](CO)C(=O)N[C@H](C(=O)N[C@@H](Cc1ccccc1)C(=O)N[C@@H](CO)C(=O)N[C@@](C)(CCCCN)C(=O)N[C@@H](CCCNC(=N)N)C(=O)N[C@@H](C)C(=O)N[C@@H](CCCCNC(C)=O)C(N)=O)[C@@H](C)O)C(=O)O)C(=O)O)C(=O)O` [compound 84] (Ac-LEGREKVRAK(Ac)I[Aib]IEGK([Suc-X1])STFS[αMeK]RAK(Ac)-NH2), the midpoint of the response, the EC50, lay at 0.1 nM and the Emax turned out to be 95%.

The term EC50 denotes the concentration that produces a half-maximal response. Lower therefore signals a more potent agent. One may read the Emax as the greatest response seen or fitted, relative to the assay's reference.
